These results are taken from patent publication US11179322B2, “Methods and compositions for treating tumors with TTFields and sorafenib” (Novocure GmbH, priority 2018, dated 2021).

In general, IC50 refers to the midpoint of a concentration-inhibition curve.

Structures are written as SMILES.

Data set [1] relates to Huh-7D12 cells. Put plainly: Clonogenic survival. It counts as cell-based, human. The procedure: (§1) Sorafenib was obtained from BioVision, USA.
(§2) At the end of treatment, cells were removed with trypsin, counted, plated in 6-well plates (300 cells/plate) and incubated for 2-3 weeks in CO2 incubator at 37° C. When colonies reached 40-100 cells/colony, they were fixed with 100% methanol, stained with 0.5% crystal violet (Sigma), photographed, and the number of clones was quantified using ImageJ program.

Data set [2] relates to HepG2 cells. Put plainly: Clonogenic survival. The class given is cell-based, human. As to the method: as §1, §2
The subject of data set [3] is Huh-7D12 cells. Put plainly: Cytotoxicity assay and overall effect (cell counts by flow cytometry). It counts as cell-based, human. As to the method: (§3) All combination experiments were performed at a frequency of 150 kHz. In these examples, the electric field intensity was 1.0 V/cm for HepG2 and 1.7 V/cm for Huh-7D12 cells. Both cell lines were grown at various sorafenib concentrations (0.1-3.0 μM), and were treated with TTFields for 72 hours. […] The number of cells was determined at the end of treatment and is expressed as a percentage of control cells.
as §1
(§4) TTFields (1.0-1.7 V/cm RMS, 150 kHz) were applied for 72 hours to cell lines using the Inovitro™ system. At the end of treatment, inhibition of tumor cell growth was analysed quantitatively based on cell counts performed on EC800 flow cytometer (Sony Biotechnology, Japan).

The test system of data set [4] is HepG2 cells. The description is as above. The class given is cell-based, human. As to the method:
as §3, §1, §4

For data set [5], the system named is N1S1 Hepatocellular Carcinoma. Put plainly: N1S1 orthotopic HCC rat model, tumor volume by MRI. The class given is in vivo. The settings on record: Sprague Dawley rats, N1S1 liver tumor, sorafenib 10 mg/kg/day IP + TTFields 150 kHz 2.86 V/cm.
Protocol: In this experiment, the volume of the tumor was measured using MRI on day 6 (one day before treatment start) and day 14 (one day after the end of treatment); and each data point in FIG. 7 represents the volume of the tumor on day 14 divided by the volume of the tumor on day 6. Thus, numbers greater than 1 represent growth in the tumor volume, and numbers smaller than 1 represent a tumor that has shrunk between day 6 and day 14.
In the first part, the efficacy of different Sorafenib concentrations in combination with TTFields was tested, and one concentration was used during future experiments (10 mg/kg/day over 5 days). In the following experiments, the combined treatment of a single Sorafenib concentration and TTFields (150 kHz) was tested.
All animals were injected orthotopically to the left lobe of the liver with N1S1 Hepatocellular Carcinoma model (Garin E. et al., 2005) by day 0 as described in SOP-BI-036. The peritoneum was closed using sutures and the wound was closed using clips. On day 6, all animals underwent first MRI (as described in SOP-BI-029) and were randomly divided into groups. […]
Tumor volume was determined based on MRI scans on days 7, 14 and day 21 after injection. […] Tumor volume was measured by manual segmentation of the tumor using ITK-SNAP version 3.6.0-rc1 free software.
For data set [6], the system named is Huh-7D12 cells. Put plainly: Apoptosis induction (FITC Annexin V / 7-AAD flow cytometry). (Flow cytometry measures light scatter and fluorescence of single cells or particles in a stream.)
Protocol: (§5) The exemplary effects of the combined treatment of TTFields and sorafenib was tested using the following human HCC cell lines: HepG2 (ATCC) and Huh-7D12 (Sigma). All cells were grown in a humidified incubator supplied with 5% CO2. HepG2 were maintained in EMEM, supplemented with 10% FBS, 2 mmol/L glutamine, Pen-Strep solution (100 units/ml Penicillin and 0.1 mg/ml Streptomycin), 1 mmol/L sodium pyruvate and 1% NEAA. […] Sorafenib was obtained from BioVision, USA.
(§6) For apoptosis analysis, cells were removed with Trypsin immediately after 72 h treatment, washed twice with ice-cold PBS with 1% FBS, and stained using FITC Annexin V Apoptosis Detection Kit and 7-AAD (BioLegend, USA). Early, late, and total apoptosis was then quantified using the EC800 flow cytometer (Sony Biotechnology, Japan).
The subject of data set [7] is HepG2 cells. The data set is described as above.
Protocol: as §5, §6

In the case of `CNC(=O)c1cc(Oc2ccc(NC(=O)Nc3ccc(Cl)c(C(F)(F)F)c3)cc2)ccn1` [sorafenib, 4-[4-[[4-chloro-3-(trifluoromethyl)phenyl]carbamoylamino]phenoxy]-N-methylpyridine-2-carboxamide], the “clonogenic potential, sorafenib monotherapy” value was “reduction in the clonogenic potential” with Huh-7D12 cells [1] (Huh-7D12, escalating dose of sorafenib alone) and “reduction in the clonogenic potential” in the data set on HepG2 cells [2] (HepG2, escalating dose of sorafenib alone). In addition, the “clonogenic survival, combined treatment of TTFields and sorafenib” value in the data set with Huh-7D12 cells [1] (Huh-7D12, sorafenib + TTFields 150 kHz 1.7 V/cm, 72 hours) is given as “additional reduction in the clonogenic survival”; in the data set with HepG2 cells [2] (HepG2, sorafenib + TTFields 150 kHz 1.0 V/cm, 72 hours), “additional reduction in the clonogenic survival”. Further, the IC50 in the data set with Huh-7D12 cells [3] (Homo sapiens, Huh-7D12, sorafenib alone, 72 hours, read-out: IC50 (number of cells, percentage of control)) is around 1 µM; with HepG2 cells [4] (Homo sapiens, HepG2, sorafenib alone, 72 hours, read-out: IC50 (number of cells, percentage of control)), around 1 µM. Moreover, the “cytotoxicity of combined treatment of TTFields and sorafenib” value in the data set on Huh-7D12 cells [3] (Huh-7D12, sorafenib 0.1-3.0 μM + TTFields 150 kHz 1.7 V/cm, 72 hours, 2-way ANOVA p<0.001) was “enhanced cytotoxicity”; with HepG2 cells [4] (HepG2, sorafenib 0.1-3.0 μM + TTFields 150 kHz 1.0 V/cm, 72 hours, 2-way ANOVA p<0.001), “enhanced cytotoxicity”. In addition, the “overall effect, sorafenib in combination with TTFields vs sorafenib alone” value with Huh-7D12 cells [3] (Huh-7D12, sorafenib 0.1-3.0 μM, TTFields 1.7 V/cm) is reported as “improvement provided by TTFields can be seen even at low levels of sorafenib”; in the data set with HepG2 cells [4] (HepG2, sorafenib 0.1-3.0 μM, TTFields 1.0 V/cm) it was “improvement provided by TTFields can be seen even at low levels of sorafenib”. Besides, the “tumor volume (day 14 divided by day 6, MRI), combination of TTFields and sorafenib” value in data set [5] is “synergistic decrease in tumor volume”. The “apoptotic events, sorafenib alone” value is “increased apoptotic events” with Huh-7D12 cells [6] (Huh-7D12, 72 hours, sorafenib from no drug to 3 μM) and “increased apoptotic events” in the data set on HepG2 cells [7] (HepG2, 72 hours, sorafenib from no drug to 3 μM). For the same compound, the “additional increase in apoptosis, sorafenib with TTFields” value in the data set with Huh-7D12 cells [6] (Huh-7D12, sorafenib + TTFields 150 kHz 1.7 V/cm, 72 hours, range stated for both cell lines) is on record as 10-45%; in the data set on HepG2 cells [7] (HepG2, sorafenib + TTFields 150 kHz 1.0 V/cm, 72 hours, range stated for both cell lines), 10-45%.
